The results in this text go back to ChEMBL document CHEMBL1201862, “PubChem BioAssay data set” (2004).

Some test systems named below: NCI-H460; SNB-75; DMS-273; IGROV-1; K562; UACC-257; OVCAR-4; HL-60; OVCAR-8; COLO 205; HOP-62; SF-295; SF-268; U-251; UACC-62; SNB-19; NCI-H226; RPMI-8226; DU-145; T47D.
Test in all cases: NCI anticancer screen, dose series, 48 h

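1) Cells in 96-well plates. 2) Compound, 48 h, 5 concentrations. 3) Linear interpolation between surrounding doses. 4) Unreached endpoint = highest concentration. Abbreviation: GI50, concentration required for 50% inhibition of growth.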 Calls of active or inactive are those of the source. Cut-off read from the data, not from the text of the source: active = GI50 up to about 1.1 µM and inactive = higher.

On to `CCC1(N=[N+]=[N-])C(=O)Nc2cc(C)ccc2C1=O` (stereo not drawn), for which the GI50 with NCI-H460 was > 100 µM (inactive); in the assay on SNB-75, > 100 µM (inactive); with DMS-273 it was 23 µM (inactive); with IGROV-1, > 100 µM (inactive); in the assay with K562, 47.5 µM (inactive); in the assay with UACC-257, 96.4 µM (inactive). Further, the GI50 with OVCAR-4 is > 100 µM (inactive); in the assay on HL-60, 21.3 µM (inactive); in the assay with OVCAR-8, > 100 µM (inactive); with COLO 205, 69.3 µM (inactive); in the assay with HOP-62 it was > 100 µM (inactive); in the assay on SF-295, > 100 µM (inactive). Moreover, the GI50 in the assay on SF-268 is > 100 µM (inactive); in the assay on U-251, 96.2 µM (inactive); in the assay with UACC-62 it was 62.2 µM (inactive); in the assay on SNB-19, > 100 µM (inactive).

Consider `CCCC/C=C1\CCC(CN2CCCC2)C1=O` (stereo not drawn), for which the GI50 was 19.9 µM (inactive) with NCI-H460; 18.4 µM (inactive) in the assay with SNB-75; 16.7 µM (inactive) in the assay with DMS-273; 18.4 µM (inactive) in the assay on IGROV-1; 2.71 µM (inactive) with K562; 17.3 µM (inactive) in the assay on NCI-H226. Moreover, the GI50 in the assay with UACC-257 was 18.1 µM (inactive); with HL-60, 8.61 µM (inactive); in the assay on OVCAR-8, 15.1 µM (inactive); in the assay on COLO 205, 12.9 µM (inactive); with HOP-62 it was 18.4 µM (inactive); in the assay with SF-295 it was 18.1 µM (inactive). For the same compound, the GI50 with SF-268 was 16 µM (inactive); with U-251, 6.75 µM (inactive); in the assay on UACC-62 it was 17.1 µM (inactive); in the assay on SNB-19 it was 21.8 µM (inactive).

For the compound `CC(C)(C)c1cc(C(O)(C(F)(F)F)C(F)(F)F)c2c(c1)C(C(F)(F)F)(C(F)(F)F)OC(c1ccccc1)(C(C)(C)C)N2` (stereo not drawn), the GI50 was 2.65 µM (inactive) with NCI-H460; 2.82 µM (inactive) in the assay with SNB-75; 3.61 µM (inactive) with DMS-273; 4.33 µM (inactive) in the assay with IGROV-1; 3.07 µM (inactive) in the assay on K562; 3.24 µM (inactive) in the assay on NCI-H226. Also, the GI50 was 4.99 µM (inactive) in the assay with UACC-257; 14.4 µM (inactive) in the assay on OVCAR-4; 3.07 µM (inactive) in the assay on RPMI-8226; 6.05 µM (inactive) in the assay with OVCAR-8; 4.08 µM (inactive) with COLO 205; 6.56 µM (inactive) in the assay with SF-295. The GI50 with U-251 is 3.3 µM (inactive); in the assay on UACC-62, 3.66 µM (inactive); in the assay with SNB-19 it was 4.65 µM (inactive).

Consider `CNC(=O)C(C)Oc1ccc(OCC2CCCCC2)cc1` (stereo not drawn), for which the GI50 was 50.4 µM (inactive) in the assay with NCI-H460; 96.2 µM (inactive) with SNB-75; > 100 µM (inactive) with DMS-273; > 100 µM (inactive) in the assay on IGROV-1; 65 µM (inactive) in the assay with K562; > 100 µM (inactive) in the assay on NCI-H226. The GI50 with UACC-257 was 61.1 µM (inactive); in the assay with OVCAR-4 it was > 100 µM (inactive); in the assay on HL-60 it was 34.4 µM (inactive); in the assay on OVCAR-8, > 100 µM (inactive); with SF-295, 60.7 µM (inactive); with SF-268 it was > 100 µM (inactive). Also, the GI50 in the assay on U-251, in the assay with UACC-62 and in the assay on SNB-19 was > 100 µM (inactive) throughout.

Consider `CC(C)(C)S(=O)OC12CC3CC(CC(C3)C1)C2` (stereo not drawn), for which the GI50 was > 100 µM (inactive) in the assay with NCI-H460; 33.8 µM (inactive) with SNB-75; > 100 µM (inactive) with DMS-273; > 100 µM (inactive) in the assay on IGROV-1; > 10 µM (inactive) in the assay on K562; > 100 µM (inactive) with NCI-H226. Moreover, the GI50 in the assay on OVCAR-4, with RPMI-8226, in the assay on OVCAR-8, in the assay on COLO 205, in the assay on HOP-62 and with SF-295 was > 100 µM (inactive) each time. Besides, the GI50 with SF-268, with U-251, in the assay on UACC-62 and with SNB-19 was > 100 µM (inactive) each time.

Consider `COc1cc([C@@H]2c3[nH]c4ccccc4c3C(Nc3ccc([N+](=O)[O-])cc3)[C@H]3COC(=O)N23)cc(OC)c1O` (stereo partly drawn), for which the GI50 in the assay with NCI-H460 was < 0.0181 µM (active); with SNB-75, 0.175 µM (active); in the assay on DU-145 it was 0.321 µM (active); in the assay on IGROV-1, 0.406 µM (active); in the assay with K562, 0.179 µM (active); with NCI-H226, 0.138 µM (active). For the same compound, the GI50 is 0.857 µM (active) in the assay with UACC-257; 1.74 µM (inactive) in the assay on OVCAR-4; < 0.01 µM (active) in the assay on HL-60; 0.0652 µM (active) with RPMI-8226; 0.285 µM (active) with OVCAR-8; 0.466 µM (active) in the assay on T47D. For the same compound, the GI50 in the assay with COLO 205 is 0.548 µM (active); in the assay on HOP-62, 0.0873 µM (active); in the assay with SF-295, 0.125 µM (active); in the assay with SF-268, 0.299 µM (active); with U-251 it was 0.147 µM (active); with UACC-62 it was 0.195 µM (active). Besides, the GI50 in the assay on SNB-19 is 0.127 µM (active).

On to `CC(=O)O/C(=C1\C[C@H]2[C@@H]3CC=C4C[C@@H](OC(C)=O)CC[C@]4(C)[C@H]3CC[C@]2(C)C1=O)C(F)(F)F`, for which the GI50 in the assay on NCI-H460 was 4.7 µM (inactive); in the assay with SNB-75 it was 21.9 µM (inactive); in the assay on DU-145, 9.95 µM (inactive); in the assay with IGROV-1, 5.56 µM (inactive); in the assay with K562, 0.977 µM (active); with NCI-H226, 21 µM (inactive). The GI50 was 6.98 µM (inactive) in the assay with UACC-257; 11.4 µM (inactive) in the assay on OVCAR-4; 3.51 µM (inactive) in the assay with HL-60; 4.08 µM (inactive) in the assay on RPMI-8226; 5.18 µM (inactive) in the assay with OVCAR-8; 7.4 µM (inactive) in the assay with T47D. Further, the GI50 in the assay with COLO 205 is 10.8 µM (inactive); in the assay on HOP-62, 14.1 µM (inactive); with SF-295, 16.2 µM (inactive); in the assay with SF-268, 6.62 µM (inactive); in the assay with U-251, 5.43 µM (inactive); in the assay with UACC-62 it was 8.77 µM (inactive). In addition, the GI50 with SNB-19 was 17.8 µM (inactive).

For `NCC1CCN(c2nc3ccccc3c3c2CCCC3)CC1`, the GI50 with NCI-H460 is 5.06 µM (inactive); in the assay with SNB-75 it was 4.21 µM (inactive); in the assay on DU-145, 13.1 µM (inactive); with IGROV-1, 8.85 µM (inactive); in the assay with K562, 2.54 µM (inactive); in the assay with NCI-H226 it was 16.7 µM (inactive). Further, the GI50 in the assay with UACC-257 was 2.68 µM (inactive); with OVCAR-4 it was 10.5 µM (inactive); in the assay on HL-60, 2.84 µM (inactive); in the assay on RPMI-8226, 2.31 µM (inactive); with OVCAR-8, 17.2 µM (inactive); in the assay with T47D, 2.28 µM (inactive). The GI50 in the assay on COLO 205 is 1.61 µM (inactive); in the assay with HOP-62, 14.7 µM (inactive); in the assay with SF-295 it was 12.9 µM (inactive); in the assay on SF-268, 2.78 µM (inactive); with U-251, 5.35 µM (inactive); with UACC-62, 2.29 µM (inactive). The GI50 in the assay with SNB-19 was 10.4 µM (inactive).

Turning to `COc1ccc(/C(=N/Nc2ccccc2)C(c2ccc(OC)cc2)C2OC(=O)c3ccccc32)cc1` (stereo not drawn), the GI50 in the assay on NCI-H460 is 95.7 µM (inactive); with SNB-75, 48.9 µM (inactive); in the assay with DMS-273, > 100 µM (inactive); in the assay with IGROV-1, 83.9 µM (inactive); in the assay on K562 it was 31.8 µM (inactive); in the assay with NCI-H226, 9.84 µM (inactive). Besides, the GI50 with UACC-257 is 76 µM (inactive); in the assay with OVCAR-4 it was > 100 µM (inactive); with OVCAR-8, > 100 µM (inactive); in the assay on COLO 205, > 100 µM (inactive); in the assay on HOP-62, > 100 µM (inactive); with SF-295 it was > 100 µM (inactive). The GI50 in the assay with SF-268 is 23.3 µM (inactive); in the assay on U-251 it was > 100 µM (inactive); in the assay on UACC-62, 52.7 µM (inactive); with SNB-19 it was > 100 µM (inactive).

On to `Cn1c(=O)c2c(nc3[nH]c(=O)c(Br)cn32)n(C)c1=O`, for which the GI50 with NCI-H460, with SNB-75, in the assay with DU-145, in the assay with IGROV-1, with K562 and in the assay with NCI-H226 was > 100 µM (inactive) each time. Also, the GI50 with UACC-257, in the assay with OVCAR-4, with HL-60, in the assay on RPMI-8226, with OVCAR-8 and in the assay with T47D was > 100 µM (inactive) in each case. Besides, the GI50 in the assay on COLO 205, in the assay with HOP-62, with SF-295, in the assay on SF-268, with U-251 and with UACC-62 was > 100 µM (inactive) each time. In addition, the GI50 in the assay on SNB-19 was > 100 µM (inactive).

As for `COc1cccc2c1[C@]1(O)C(O)CCCC21` (stereo partly drawn), the GI50 in the assay on NCI-H460, with SNB-75, in the assay with DMS-273, in the assay with IGROV-1, in the assay on K562 and in the assay on NCI-H226 was > 100 µM (inactive) in each case. The GI50 in the assay on UACC-257, with OVCAR-4, with RPMI-8226, in the assay on OVCAR-8, with COLO 205 and with HOP-62 was > 100 µM (inactive) throughout. Further, the GI50 in the assay on SF-295, with SF-268, in the assay with U-251, with UACC-62 and with SNB-19 was > 100 µM (inactive) throughout.

In the case of `CCOC(=O)c1cc(OC(=O)CC)c2c(OC)ccc(OC)c2c1`, the GI50 is > 100 µM (inactive) in the assay with NCI-H460; 11.4 µM (inactive) with SNB-75; 35.5 µM (inactive) in the assay on DMS-273; > 100 µM (inactive) in the assay with IGROV-1; 42.3 µM (inactive) with K562; 52.4 µM (inactive) with OVCAR-4. Also, the GI50 in the assay on RPMI-8226 is 30.5 µM (inactive); in the assay on COLO 205, > 100 µM (inactive); in the assay with U-251, 53.6 µM (inactive); in the assay with UACC-62 it was 28.8 µM (inactive); in the assay with SNB-19 it was 89.3 µM (inactive).
